Reference: paper PMC10093836, “Stabilization of the Dimeric State of SARS-CoV-2 Main Protease by GC376 and Nirmatrelvir” (International Journal of Molecular Sciences, 2023)

Target: SARS-CoV-2 Mpro dimer (Severe acute respiratory syndrome coronavirus 2, UniProt P0DTD1)
Assay: SAXS monomer-dimer equilibrium of Mpro in the presence of inhibitors

CC(C)c1nc(CN(C)C(=O)N[C@H](C(=O)N[C@@H](Cc2ccccc2)C[C@H](O)[C@H](Cc2ccccc2)NC(=O)OCc2cncs2)C(C)C)cs1 [RTV, ritonavir]
ΔCp of Mpro dimer dissociation (Mpro alone 1.3 ± 0.4): 4 ± 1 kJ K^−1mol^−1
ΔS^0 of Mpro dimer dissociation (T0 = 298.15 K, Mpro alone −30 ± 10): −70 ± 50 J K^−1mol^−1
ΔH^0 of Mpro dimer dissociation (T0 = 298.15 K, derived parameter of the fit, Mpro alone 21 ± 4): 2.63 ± 1.2 kcal/mol
